Test results reported in US20220175720A1, “COMBINED P[…] ANTHOCYANIN COMPOSITION AND AN ANTIVIRAL AGENT” (priority 2019, published 2022).

Experiments:
[1] = test system: GFP-encoding wildtype HSV-1 virus; assay: HSV-1 infection assay, GFP-expressing infected cells counted directly; format: cell-based, herpes simplex virus 1; conditions: single anthocyanins, BHK cells
Protocol: BHK cells were incubated with decreasing concentration of the solubilized test compounds for approx. 1 h. All concentrations were analyzed by six independent replicates on a black 96 well plate (PerkinElmer). Cells were infected with GFP-encoding wildtype HSV-1 virus and incubated for two days. Two days after infection, HSV-1-infected cells and GFP expressing cells were directly counted using the PerkinElmer Ensight system with optical cell culture plates. The instrument was controlled by manual counting.
The cells were subsequently infected with GFP-encoding HSV at a multiplicity of infection of 2.5, and infected GFP-expressing cells were counted one day after infection using the PerkinElmer Ensight system. […] Thus, the sugar is not required as potential co-factor for drug uptake.

HSV-1 = HSV-1 complete replication cycle assay, supernatants used to infect fresh BHK cells; format: cell-based, herpes simplex virus 1
Protocol: To not only analyze the virus entry and early phase of virus replication of infection but also later phases of viral replication, the test assay was adjusted accordingly. BHK cells were incubated with test compounds and subsequently infected with HSV-1. Two days after infection supernatants were collected, centrifuged to remove detached cells and used to infect BHK cells. After two additional days infected cells were quantified using the Ensight system.
Two days after infection supernatants were collected, centrifuged to remove detached cells and used to infect BHK cells. After two additional days infected cells were quantified using the PerkinElmer Ensight system. The mean of infected cells from six independent wells was calculated. Error bars show the standard deviation.
(§1) However, Aciclovir, the standard therapy for HSV-1, targets viral DNA replication before the late phase of virus replication cycle. […] Two days after infection supernatants were collected, centrifuged to remove detached cells and used to infect BHK cells. After two addition days infected cells were quantified.
as §1

SMILES | inhibition of HSV-1 (viral infectivity) [1] | reduction of infected cells (HSV-1; 0.5 μg/ml Aciclovir alone) | reduction of viral infectivity (HSV-1; 2 μg/ml Aciclovir alone)
OC[C@H]1O[C@@H](Oc2cc3c(O)cc(O)cc3[o+]c2-c2cc(O)c(O)c(O)c2)[C@H](O)[C@@H](O)[C@H]1O [D3Gal, Delphinidin 3-galactoside] | Neither C3G nor D3Gal or Pet3G inhibited HSV-1 | – | –
Nc1nc2c(ncn2COCCO)c(=O)[nH]1 [Aciclovir, 9-(2-hydroxyethoxymethyl)guanine] | – | two | two
OC[C@H]1O[C@@H](Oc2cc3c(O)cc(O)cc3[o+]c2-c2ccc(O)c(O)c2)[C@H](O)[C@@H](O)[C@@H]1O [C3G, Cyanidin 3-glucoside] | Neither C3G nor D3Gal or Pet3G inhibited HSV-1 | – | –
COc1cc(-c2[o+]c3cc(O)cc(O)c3cc2O[C@@H]2O[C@H](CO)[C@@H](O)[C@H](O)[C@H]2O)cc(O)c1O [Pet3G, Petunidin 3-glucoside] | Neither C3G nor D3Gal or Pet3G inhibited HSV-1 | – | –
